Results: paper PMC6949936, “Probing the Interactions of Sulfur-Containing Histidine Compounds with Human Gamma-Glutamyl Transpeptidase” (Marine Drugs, 2019)

Biological target: T1, Gamma-glutamyl transpeptidase (eqGGT) (Equus caballus, UniProt F7DXY0)
T1 construct: GGT from equine kidney (Sigma-Aldrich)
Experiment: time-dependent irreversible inactivation, pre-incubation with […] DON then dilution
Assay type: biochemical

T1 sequence (F7DXY0 75-452): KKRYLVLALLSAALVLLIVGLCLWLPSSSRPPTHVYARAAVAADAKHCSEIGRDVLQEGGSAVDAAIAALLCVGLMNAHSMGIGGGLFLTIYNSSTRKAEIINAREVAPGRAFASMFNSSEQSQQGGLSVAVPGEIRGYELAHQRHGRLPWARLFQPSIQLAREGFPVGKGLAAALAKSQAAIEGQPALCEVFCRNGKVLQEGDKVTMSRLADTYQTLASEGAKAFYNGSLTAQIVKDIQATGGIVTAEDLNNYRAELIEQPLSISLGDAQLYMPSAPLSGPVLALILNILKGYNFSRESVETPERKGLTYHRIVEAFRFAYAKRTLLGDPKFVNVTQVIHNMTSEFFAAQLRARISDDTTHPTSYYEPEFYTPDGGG
T1 sequence (F7DXY0 453-641): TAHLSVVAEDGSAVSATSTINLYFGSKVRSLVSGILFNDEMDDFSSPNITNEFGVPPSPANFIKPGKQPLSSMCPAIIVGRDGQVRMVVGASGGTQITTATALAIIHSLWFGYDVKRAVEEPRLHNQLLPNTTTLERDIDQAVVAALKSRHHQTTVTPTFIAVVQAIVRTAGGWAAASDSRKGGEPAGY

## [N-]=[N+]=CC(=O)CC[C@H](N)C(=O)O [DON, 6-diazo-5-oxo-L-norleucine]
  time-dependent irreversible inactivation, pre-incubation with 400 μM DON then di: DON acts as an irreversible inhibitor, and then as an inactivator of GGT, because, after dilution, the activity was not restored
